Measurements as given in patent US20250171431A1, “HETEROCYCLIC INHIBITORS OF IGF-1R FOR TREATMENT OF DISEASE” (HORIZON THERAPEUTICS IRELAND DAC, priority 2023, published 2025).
pIC50: −log10 of the molar value.

The compounds below were run against IGF-1R (Homo sapiens (Human), UniProt P08069) (assay: Example B-1: IGF-1R Assay (PC3 cells, IGF1 stimulation, AlphaLISA)). Conditions: 200 ng/mL IGF1 stimulation, read-out: Biological Activity against IGF-1R IC50.
Format: cell-based
Protocol: 50K PC3 cells were seeded on day 1 in 50 μL of media in 96-well plate and incubated overnight at 37° C., 5% CO2. On day 2, all cells were expected to be at 80-90% confluency. Cells were starved for two hours by changing the media to 90 μL of EMEM serum-free media and incubated for 2 hours. Next, cells were treated with 10 μL of 10× concentrated and 3× serially diluted compounds for two hours. It makes 1× of compounds in 100 μL media. This was followed by stimulation of cells with 11×IGF1 for 30 min in 10 μL of serum-free EMEM media at the final concentration of 200 ng/mL.
The media was removed and replaced by 50 μL of 1× lysis buffer from the AlphaLISA kit (with 1× of cOmplete™ protease inhibitor). The plates were sealed, and cells were allowed to lyse for 10 min in the shaker before storing the plate at −20° C. until used. The AlphaLISA assay with processed cell lysates were performed as described in the protocol. Briefly, 10 μL of the undiluted sample were loaded to 384 well Optiplates and 5 μL of the acceptor mix (as described in the AlphaLISA kit) was added to each well. The plates were sealed and briefly vortexed followed by the incubation at RT for 3 hours. In the dark, 5 μL of donor mix was added to each well. All plates were sealed and stored at RT overnight. The plates were read in EnVision reader using standard AlphaLISA settings.
Compound activity was analyzed using CBIS data analysis suite (ChemInnovation, CA). Percentage inhibition was calculated using the following formula: % Inhibition=100%×(1−(mean RLU of test sample−mean RLU of vehicle control)/(mean RLU of EC80 control−mean RLU of vehicle control)). The activity for representative examples of the invention is shown in the following table, wherein A: IC50≤500 nM; B: 500 nM<IC50≤2 μM; C: 2 μM<IC50≤10 μM; D: IC50>10 μM.

IGF-1R, sequence (P08069 31-1367): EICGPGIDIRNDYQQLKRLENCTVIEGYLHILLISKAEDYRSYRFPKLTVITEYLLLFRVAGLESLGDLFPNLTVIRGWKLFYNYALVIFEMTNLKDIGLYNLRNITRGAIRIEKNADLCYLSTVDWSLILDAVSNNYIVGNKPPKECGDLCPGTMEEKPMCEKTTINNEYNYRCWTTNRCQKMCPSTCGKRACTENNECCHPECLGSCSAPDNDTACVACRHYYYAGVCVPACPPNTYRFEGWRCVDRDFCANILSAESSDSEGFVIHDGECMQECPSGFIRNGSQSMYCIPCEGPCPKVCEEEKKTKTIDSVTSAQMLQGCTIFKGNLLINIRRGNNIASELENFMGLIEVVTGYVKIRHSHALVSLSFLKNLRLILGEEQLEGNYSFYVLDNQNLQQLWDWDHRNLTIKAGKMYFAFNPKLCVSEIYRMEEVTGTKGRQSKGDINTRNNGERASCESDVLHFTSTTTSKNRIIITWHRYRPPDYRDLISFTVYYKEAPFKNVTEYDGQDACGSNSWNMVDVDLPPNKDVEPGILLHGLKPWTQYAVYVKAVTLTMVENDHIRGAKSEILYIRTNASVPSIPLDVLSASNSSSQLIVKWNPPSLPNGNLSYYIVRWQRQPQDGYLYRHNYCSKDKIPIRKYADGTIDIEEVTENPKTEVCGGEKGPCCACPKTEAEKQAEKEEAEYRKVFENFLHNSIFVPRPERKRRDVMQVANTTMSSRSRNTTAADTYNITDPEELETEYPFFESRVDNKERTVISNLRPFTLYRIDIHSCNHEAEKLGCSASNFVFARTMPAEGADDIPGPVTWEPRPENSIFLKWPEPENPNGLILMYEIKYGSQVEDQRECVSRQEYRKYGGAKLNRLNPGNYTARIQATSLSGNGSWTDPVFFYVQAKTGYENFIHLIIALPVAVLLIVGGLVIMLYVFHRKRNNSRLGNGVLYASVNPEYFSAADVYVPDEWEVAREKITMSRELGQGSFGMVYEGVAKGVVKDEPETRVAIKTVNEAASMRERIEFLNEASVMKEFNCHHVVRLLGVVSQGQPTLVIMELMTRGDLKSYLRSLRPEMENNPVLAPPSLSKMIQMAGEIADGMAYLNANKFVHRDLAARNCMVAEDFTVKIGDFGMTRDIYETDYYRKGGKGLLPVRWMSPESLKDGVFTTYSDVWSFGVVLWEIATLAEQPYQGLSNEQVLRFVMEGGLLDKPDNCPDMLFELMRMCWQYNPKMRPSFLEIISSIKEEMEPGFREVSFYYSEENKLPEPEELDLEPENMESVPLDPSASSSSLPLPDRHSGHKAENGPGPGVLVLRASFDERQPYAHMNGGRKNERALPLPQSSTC

Row | SMILES | pIC50
1 | O=S1(=O)CCN([C@H]2CC[C@@H](Oc3ccc(Nc4nccc(Nc5cnc6ccccc6c5)n4)cc3)CC2)CC1 [Compound 38, 4-[(1s,4s)-4-{p-[4-(3-quinolylamino)-2-pyrimidinylamino]phenoxy}cyclohexyl]-126,4-thiazinane-1,1-dione] | ≥ 6.30
2 | c1ccc2ncc(Nc3ccnc(Nc4ccc(O[C@H]5CC[C@@H](N6CCOCC6)CC5)cc4)n3)cc2c1 [Compound 39, 4-(3-quinolylamino)-2-{p-[(1s, 4s)-4-morpholinocyclohexyloxy]phenylamino}pyrimidine] | ≥ 6.30
3 | CN(C)[C@H]1CC[C@@H](Oc2ccc(Nc3nccc(Nc4cnc5ccccc5c4)n3)cc2)CC1 [Compound 40, 4-(3-quinolylamino)-2-{p-[(1s,4s)-4-(dimethylamino)cyclohexyloxy]phenylamino}pyrimidine] | ≥ 6.30
4 | O=C1CN([C@H]2CC[C@@H](Oc3ccc(Nc4nccc(Nc5cnc6ccccc6c5)n4)cc3)CC2)CCN1 [Compound 41] | ≥ 6.30
5 | CN(C)[C@H]1C[C@H](Oc2ccc(Nc3nccc(Nc4cnc5ccccc5c4)n3)cc2C#N)C1 [Compound 42, 5-[4-(3-quinolylamino)-2-pyrimidinylamino]-2-[(1r,3r)-3-(dimethylamino)cyclobutoxy] benzonitrile] | ≥ 6.30
6 | CN(C)[C@H]1C[C@@H](Oc2ccc(Nc3nccc(Nc4cnc5c(c4)OCCO5)n3)cc2C#N)C1 [Compound 43, 5-[4-(2,3-dihydro-1,4-dioxa-5-aza-7-naphthylamino)-2-pyrimidinylamino]-2-[(1s,3s)-3-(dimethylamino)cyclobutoxy] benzonitrile] | ≥ 6.30
7 | COc1cc(Nc2nccc(Nc3cnc4c(c3)OCCO4)n2)cc(C#N)c1O[C@H]1C[C@H](N(C)C)C1 [Compound 44, 5-[4-(2,3-dihydro-1,4-dioxa-5-aza-7-naphthylamino)-2-pyrimidinylamino]-3-methoxy-2-[(1r,3r)-3-(dimethylamino)cyclobutoxy] benzonitrile] | ≥ 6.30
8 | CN1CC2(Cc3ccc(Nc4nccc(Nc5cc6cccc(F)c6[nH]c5=O)n4)cc3O2)C1 [Compound 45, 8-fluoro-3-{2-(1-methyl-3′H-spiro[azetidine-3,2′-[1]benzofuran]-6′-ylamino)-4-pyrimidinylamino}-1,2-dihydro-2-quinolinone] | ≥ 6.30
9 | CN(C)[C@H]1C[C@@H](Oc2ncc(Nc3nccc(Nc4cnc5c(c4)OCCO5)n3)cc2C#N)C1 [Compound 46, 5-[4-(2,3-dihydro-1,4-dioxa-5-aza-7-naphthylamino)-2-pyrimidinylamino]-2-[(1s,3s)-3-(dimethylamino)cyclobutoxy] nicotinonitrile] | ≥ 6.30
10 | COCCN(C)[C@H]1C[C@@H](Oc2ccc(Nc3nccc(Nc4cnc5cc(F)c(F)cc5c4)n3)cc2OC)C1 [Compound 47, 4-(6,7-difluoro-3-quinolylamino)-2-(3-methoxy-4-{(1s,3s)-3-[(2-methoxyethyl)-N-methylamino]cyclobutoxy}phenylamino)pyrimidine] | ≥ 6.30
11 | COc1cc(Nc2nccc(Nc3cnc4cc(F)c(F)cc4c3)n2)cnc1N1CC(N(C)C)C1 [Compound 48, 4-(6,7-difluoro-3-quinolylamino)-2-{6-[3-(dimethylamino)-1-azetidinyl]-5-methoxy-3-pyridylamino}pyrimidine] | ≥ 6.30
12 | COc1cc(Nc2nccc(Nc3cnc4cc(F)c(F)cc4c3)n2)cnc1N1CCN(CC#N)CC1 [Compound 49] | ≥ 6.30
13 | COc1cc(Nc2nccc(Nc3cnc4cc(F)c(F)cc4c3)n2)cnc1N1CC2(COC2)C1 [Compound 50, 4-(6,7-difluoro-3-quinolylamino)-2-{5-methoxy-6-(2-oxa-6-aza-6-spiro[3.3]heptyl)-3-pyridylamino}pyrimidine] | ≥ 6.30
14 | COc1cc(Nc2nccc(Nc3cnc4cc(F)c(F)cc4c3)n2)cnc1N1CCN(C2COC2)CC1 [Compound 51, 4-(6,7-difluoro-3-quinolylamino)-2-{5-methoxy-6-[4-(3-oxetanyl)-1-piperazinyl]-3-pyridylamino}pyrimidine] | ≥ 6.30
15 | COc1cc(Nc2nccc(Nc3cnc4cc(F)c(F)cc4c3)n2)cnc1N1CCNC(C(C)(C)O)C1 (stereo not drawn) [Compound 52, 2-(4-{5-[4-(6,7-difluoro-3-quinolylamino)-2-pyrimidinylamino]-3-methoxy-2-pyridyl}-2-piperazinyl)-2-propanol] | ≥ 6.30
16 | COc1cc(Nc2nccc(Nc3cnc4c(c3)COCC4)n2)ccc1OCCCN1CCCCC1 [Compound 53, 4-(7,8-dihydro-5H-6-oxa-1-azanaphth-3-ylamino)-2-[3-methoxy-4-(3-piperidinopropoxy)phenylamino] pyrimidine] | ≥ 6.30
17 | COc1cc(Nc2nccc(Nc3cnc4c(c3)CCOC4)n2)ccc1OCCCN1CCCCC1 [Compound 54, 4-(6,8-dihydro-5H-7-oxa-1-azanaphth-3-ylamino)-2-[3-methoxy-4-(3-piperidinopropoxy)phenylamino] pyrimidine] | ≥ 6.30
18 | COc1cc(Nc2nccc(Nc3cnc4c(c3)C3CCC4C3)n2)ccc1OCCCN1CCCCC1 (stereo not drawn) [Compound 56, 4-(3-azatricyclo[6.2.1.0^2,7]undeca-2,4,6-trien-5-ylamino)-2-[3-methoxy-4-(3-piperidinopropoxy)phenylamino] pyrimidine] | ≥ 6.30
19 | COc1cc(Nc2nccc(Nc3cnc4c(c3)CCCCC4)n2)ccc1OCCCN1CCCCC1 [Compound 57, 4-{8-azabicyclo[5.4.0]undeca-1(11),7,9-trien-10-ylamino}-2-[3-methoxy-4-(3-piperidinopropoxy)phenylamino] pyrimidine] | ≥ 6.30
20 | COc1cc(Nc2nccc(Nc3cnc4c(c3)C3CCC(C4)O3)n2)ccc1OCCCN1CCCCC1 (stereo not drawn) [Compound 60, 2-[3-methoxy-4-(3-piperidinopropoxy)phenylamino]-4-{12-oxa-6-azatricyclo[7.2.1.0^2,7]dodeca-2(7),3,5-trien-4-ylamino}pyrimidine] | 5.70 to 6.30
21 | COc1cc(Nc2nccc(Nc3cnc4c(c3)SC(C)CC4)n2)ccc1OCCCN1CCCCC1 (stereo not drawn) [Compound 61, 2-[3-methoxy-4-(3-piperidinopropoxy)phenylamino]-4-(2-methyl-3,4-dihydro-2H-1-thia-5-azanaphth-7-ylamino)pyrimidine] | ≥ 6.30
22 | COc1cc(Nc2nccc(Nc3cnc4c(c3)CC(C)CC4)n2)ccc1OCCCN1CCCCC1 (stereo not drawn) [Compound 62, 2-[3-methoxy-4-(3-piperidinopropoxy)phenylamino]-4-(6-methyl-5,6,7,8-tetrahydro-3-quinolylamino)pyrimidine] | ≥ 6.30
23 | CC1(C)CCc2ncc(Nc3ccnc(Nc4ccc(OCCCN5CCOCC5)cc4)n3)cc2C1 [Compound 63, 4-(6,6-dimethyl-5,6,7,8-tetrahydro-3-quinolylamino)-2-[p-(3-morpholinopropoxy)phenylamino] pyrimidine] | ≥ 6.30
24 | CC1(C)CCc2cc(Nc3ccnc(Nc4ccc(OCCCN5CCOCC5)cc4)n3)cnc2C1 [Compound 64, 4-(7,7-dimethyl-5,6,7,8-tetrahydro-3-quinolylamino)-2-[p-(3-morpholinopropoxy)phenylamino] pyrimidine] | ≥ 6.30
25 | CC1(C)COc2cc(Nc3ccnc(Nc4ccc(OCCCN5CCOCC5)cc4)n3)cnc2O1 [Compound 65, 4-(3,3-dimethyl-2,3-dihydro-1,4-dioxa-5-aza-7-naphthylamino)-2-[p-(3-morpholinopropoxy)phenylamino]pyrimidine] | ≥ 6.30
26 | COC1CCc2cc(Nc3ccnc(Nc4ccc(OCCCN5CCOCC5)cc4)n3)cnc2C1 (stereo not drawn) [Compound 66, 4-(7-methoxy-5,6,7,8-tetrahydro-3-quinolylamino)-2-[p-(3-morpholinopropoxy)phenylamino] pyrimidine] | 5.70 to 6.30
27 | COC1CCc2ncc(Nc3ccnc(Nc4ccc(OCCCN5CCOCC5)cc4)n3)cc2C1 (stereo not drawn) [Compound 67, 4-(6-methoxy-5,6,7,8-tetrahydro-3-quinolylamino)-2-[p-(3-morpholinopropoxy)phenylamino] pyrimidine] | 5.70 to 6.30
28 | c1cc(Nc2cnc3c(c2)CC2(CC3)OCCO2)nc(Nc2ccc(OCCCN3CCOCC3)cc2)n1 [Compound 68, 4-(7′,8′-dihydro-5′H-spiro[1,3-dioxolane-2,6′-quinolin]-3′-ylamino)-2-[p-(3-morpholinopropoxy)phenylamino] pyrimidine] | ≥ 6.30
29 | COc1cc(Nc2nccc(Nc3cnc4c(c3)CCC(C)C4)n2)ccc1OCCCN1CCCCC1 (stereo not drawn) [Compound 69, 2-[3-methoxy-4-(3-piperidinopropoxy)phenylamino]-4-(7-methyl-5,6,7,8-tetrahydro-3-quinolylamino)pyrimidine] | ≥ 6.30
30 | COc1cc(Nc2nccc(Nc3cnc4c(c3)C3CCC(C4)C3)n2)ccc1OCCCN1CCCCC1 (stereo not drawn) [Compound 70, 4-{6-azatricyclo[7.2.1.0^2,7]dodeca-2(7),3,5-trien-4-ylamino}-2-[3-methoxy-4-(3-piperidinopropoxy)phenylamino] pyrimidine] | ≥ 6.30
